Source: patent US20260125370A1, “SULFOXIMINE COMPOUNDS AS HISTONE DEACETYLASE 6 INHIBITOR, AND PHARMACEUTICAL COMPOSITION COMPRISING THE SAME” (CHONG KUN DANG PHARMACEUTICAL CORP., priority 2022, published 2026)

Experiments:
human recombinant HDAC6 = target: T1, human recombinant HDAC6 (Homo sapiens, UniProt Q9UBN7); assay: HDAC6 enzyme activity inhibition (fluorimetric, in vitro); type: biochemical; settings: samples at 0.1, 1, 10, 100 and 1000 nM
T1 construct: purchased Calbiochem 382180
T1 sequence (Q9UBN7 1-1215): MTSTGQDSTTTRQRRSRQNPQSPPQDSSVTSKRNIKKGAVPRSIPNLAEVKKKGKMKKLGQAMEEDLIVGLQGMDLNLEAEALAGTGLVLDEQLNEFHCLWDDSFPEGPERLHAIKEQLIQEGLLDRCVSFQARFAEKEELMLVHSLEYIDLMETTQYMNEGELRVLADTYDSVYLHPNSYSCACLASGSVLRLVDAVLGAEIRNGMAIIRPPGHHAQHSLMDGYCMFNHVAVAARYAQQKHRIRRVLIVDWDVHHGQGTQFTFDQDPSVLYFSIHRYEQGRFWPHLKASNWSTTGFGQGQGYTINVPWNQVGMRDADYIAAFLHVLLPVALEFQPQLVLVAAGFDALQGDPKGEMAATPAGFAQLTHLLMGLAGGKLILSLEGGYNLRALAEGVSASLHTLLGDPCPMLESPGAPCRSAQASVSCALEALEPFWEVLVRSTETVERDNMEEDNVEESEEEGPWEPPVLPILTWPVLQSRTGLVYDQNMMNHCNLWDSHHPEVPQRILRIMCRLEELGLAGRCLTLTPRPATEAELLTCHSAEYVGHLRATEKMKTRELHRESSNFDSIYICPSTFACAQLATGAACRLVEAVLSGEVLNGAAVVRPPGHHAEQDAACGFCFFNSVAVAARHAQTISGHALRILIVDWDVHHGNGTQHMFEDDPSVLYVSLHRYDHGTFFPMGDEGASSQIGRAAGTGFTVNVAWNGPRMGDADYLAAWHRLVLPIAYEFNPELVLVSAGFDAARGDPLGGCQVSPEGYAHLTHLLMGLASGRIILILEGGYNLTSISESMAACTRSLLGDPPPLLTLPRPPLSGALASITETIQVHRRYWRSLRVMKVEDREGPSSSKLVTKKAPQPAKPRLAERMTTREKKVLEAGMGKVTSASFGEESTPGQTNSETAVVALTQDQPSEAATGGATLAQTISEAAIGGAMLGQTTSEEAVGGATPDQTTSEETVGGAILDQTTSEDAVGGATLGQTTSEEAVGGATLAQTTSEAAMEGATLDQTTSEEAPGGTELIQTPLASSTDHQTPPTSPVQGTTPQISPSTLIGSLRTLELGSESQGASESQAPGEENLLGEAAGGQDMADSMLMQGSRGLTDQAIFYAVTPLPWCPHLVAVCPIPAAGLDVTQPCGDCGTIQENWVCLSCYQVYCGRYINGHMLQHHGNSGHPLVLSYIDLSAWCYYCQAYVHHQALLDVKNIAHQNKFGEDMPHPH
Method in brief: (§1)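 Recombinant human HDAC1 or HDAC6 (0.3 μg) with Fluor de Lys-SIRT1 substrate at […], 60 min at 37 °C, then developer 30 min; fluorescence Ex 360/Em 460. Compounds at 100–10000 nM for HDAC1 and 0.1–1000 nM for HDAC6; IC50 calculated.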

human recombinant HDAC1 = target: T2, human recombinant HDAC1 (Homo sapiens, UniProt Q13547); assay: HDAC1 enzyme activity inhibition (HDAC1 Fluorimetric Drug Discovery Assay Kit, in vitro); type: biochemical; settings: samples at 100, 1000 and 10000 nM
T2 construct: purchased Enzolifesciences BML-SE456
Method in brief: as §1

T2 sequence (Q13547 whole entry): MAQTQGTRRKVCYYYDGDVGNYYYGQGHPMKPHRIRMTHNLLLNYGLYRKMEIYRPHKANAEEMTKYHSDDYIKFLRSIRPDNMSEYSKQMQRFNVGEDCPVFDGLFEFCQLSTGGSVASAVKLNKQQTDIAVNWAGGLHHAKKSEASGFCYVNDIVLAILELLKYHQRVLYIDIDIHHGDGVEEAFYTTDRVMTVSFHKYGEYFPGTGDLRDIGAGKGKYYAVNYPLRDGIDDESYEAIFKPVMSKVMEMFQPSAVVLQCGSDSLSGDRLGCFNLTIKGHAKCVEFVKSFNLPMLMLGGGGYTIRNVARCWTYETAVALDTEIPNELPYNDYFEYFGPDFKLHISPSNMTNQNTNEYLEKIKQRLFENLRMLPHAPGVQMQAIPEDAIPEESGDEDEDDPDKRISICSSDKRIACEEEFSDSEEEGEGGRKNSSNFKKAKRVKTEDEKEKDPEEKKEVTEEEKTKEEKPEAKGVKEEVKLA

Row | SMILES | IC50 (human recombinant HDAC6) | IC50 (human recombinant HDAC1)
1 | N=S1(=O)CCN(C(=O)N(Cc2ncc(-c3nnc(C(F)F)o3)cc2F)c2ccc(Cl)cc2Cl)CC1 [Compound 50, N-(2,4-dichlorophenyl)-N-((5-(5-(difluoromethyl)-1,3,4-oxadiazol-2-y1)-3-fluoropyridin-2-yl)methyl)-1-iminothiomorpholin-4-carboxamide 1-oxide] | 66.4 nM | > 10000 nM
2 | N=S1(=O)CCN(C(=O)N(Cc2ccc(-c3nnc(C(F)F)o3)cc2F)c2ccc(Cl)cc2Cl)CC1 [Compound 51, N-(2,4-dichlorophenyl)-N-(4-(5-(difluoromethyl)-1,3,4-oxadiazol-2-y1)-2-fluorobenzyl)-1-iminothiomorpholin-4-carboxamide 1-oxide] | 69.9 nM | > 10000 nM
3 | CC(=O)N=S1(=O)CCN(C(=O)N(Cc2ccc(-c3nnc(C(F)F)o3)cn2)c2ccccc2)CC1 [Compound 52, 1-(acetylimino)-N-((5-(5-(difluoromethyl)-1,3,4-oxadiazol-2-yl)pyridin-2-yl)methyl)-N-phenylthiomorpholin-4-carboxamide 1-oxide] | 46.9 nM | > 10000 nM
4 | CS(=O)(=O)N=S1(=O)CCN(C(=O)N(Cc2ccc(-c3nnc(C(F)F)o3)cn2)c2ccccc2)CC1 [Compound 53, N-((5-(5-(difluoromethyl)-1,3,4-oxadiazol-2-yl)pyridin-2-yl)methyl)-1-((methylsulfonyl)imino)-N-phenylthiomorpholin-4-carboxamide 1-oxide] | 40.6 nM | > 10000 nM
5 | N=S1(=O)CCN(C(=O)N(Cc2c(F)cc(-c3nnc(C(F)F)o3)cc2F)c2ccccc2F)CC1 [Compound 54, N-(4-(5-(difluoromethyl)-1,3,4-oxadiazol-2-y1)-2,6-difluorobenzyl)-N-(2-fluorophenyl)-1-iminothiomorpholin-4-carboxamide 1-oxide] | 200 nM | > 10000 nM
6 | N=S1(=O)CCN(C(=O)N(Cc2ncc(-c3nnc(C(F)F)o3)cc2F)c2ccccc2F)CC1 [Compound 55] | 140 nM | > 10000 nM
7 | N=S1(=O)CCN(C(=O)N(Cc2ccc(-c3nnc(C(F)F)o3)cc2F)c2ccccc2F)CC1 [Compound 56, N-(4-(5-(difluoromethyl)-1,3,4-oxadiazol-2-yl)-2-fluorobenzyl)-N-(2-fluorophenyl)-1-iminothiomorpholin-4-carboxamide 1-oxide] | 72.6 nM | > 10000 nM
8 | N=S1(=O)CCN(C(=O)N(Cc2ccc(-c3nnc(C(F)F)o3)cn2)c2ccccc2F)CC1 [Compound 57] | 130 nM | > 10000 nM
9 | O=C(NC1CCS(=O)(=NC(=O)C(F)(F)F)CC1)N(Cc1ccc(-c2nnc(C(F)F)o2)cc1F)c1ccccc1 (stereo not shown) [Compound 58, N-(4-(3-(4-(5-(difluoromethyl)-1,3,4-oxadiazol-2-yl)-2-fluorobenzyl)-3-phenylureido)-1-oxidotetrahydro-2H-thiopyran-1-yliden)-2,2,2-trifluoroacetamide] | 256 nM | > 10000 nM
10 | N=S1(=O)CCC(NC(=O)N(Cc2ccc(-c3nnc(C(F)F)o3)cc2F)c2ccccc2)CC1 (stereo not shown) [Compound 59, 1-(4-(5-(difluoromethyl)-1,3,4-oxadiazol-2-yl)-2-fluorobenzyl)-3-(1-imino-1-oxidotetrahydro-2H-thiopyran-4-yl)-1-phenylurea] | 116 nM | > 10000 nM
11 | N=S1(=O)CCN(c2c(N(Cc3ccc(-c4nnc(C(F)F)o4)cc3F)c3ccccc3)c(=O)c2=O)CC1 [Compound 60, 3-((4-(5-(difluoromethyl)-1,3,4-oxadiazol-2-yl)-2-fluorobenzyl)(phenyl)amino)-4-(1-imino-1-oxidothiomorpholino)cyclobut-3-en-1,2-dione] | 26.7 nM | > 10000 nM
12 | N=S1(=O)CCN(c2c(N(Cc3ncc(-c4nnc(C(F)F)o4)cc3F)c3ccccc3)c(=O)c2=O)CC1 [Compound 61, 3-(((5-(5-(difluoromethyl)-1,3,4-oxadiazol-2-yl)-3-fluoropyridin-2-yl)methyl)(phenyl)amino)-4-(1-imino-1-oxidothiomorpholino)cyclobut-3-en-1,2-dione] | 29.8 nM | > 10000 nM
13 | N=S1(=O)CCN(C(=O)N(Cc2ccc(-c3nnc(C(F)F)o3)cn2)c2ccc(F)cc2)CC1 [Compound 62, N-[[5-[5-(difluoromethyl)-1,3,4-oxadiazol-2-yl]-2-pyridyl]methyl]-N-(4-fluorophenyl)-1-imino-1-oxo-1,4-thiazinan-4-carboxamide] | 88.4 nM | > 10000 nM
14 | N=S1(=O)CCN(C(=O)N(Cc2ccc(-c3nnc(C(F)F)o3)cc2F)c2ccc(F)cc2)CC1 [Compound 63, N-[[4-[5-(difluoromethyl)-1,3,4-oxadiazol-2-yl]-2-fluoro-phenyl]methyl]-N-(4-fluorophenyl)-1-imino-1-oxo-1,4-thiazinan-4-carboxamide] | 99.6 nM | > 10000 nM
15 | CC1CN(C(=O)N(Cc2ccc(-c3nnc(C(F)F)o3)cn2)c2ccc(F)cc2)CC(C)S1(=N)=O (stereo not shown) [Compound 64, N-[[5-[5-(difluoromethyl)-1,3,4-oxadiazol-2-yl]-2-pyridyl]methyl]-N-(4-fluorophenyl)-1-imino-2,6-dimethyl-1-oxo-1,4-thiazinan-4-carboxamide] | 123 nM | > 10000 nM
16 | CC1CN(C(=O)N(Cc2ccc(-c3nnc(C(F)F)o3)cc2F)c2ccc(F)cc2)CC(C)S1(=N)=O (stereo not shown) [Compound 65, N-[[4-[5-(difluoromethyl)-1,3,4-oxadiazol-2-yl]-2-fluoro-phenyl]methyl]-N-(4-fluorophenyl)-1-imino-2,6-dimethyl-1-oxo-1,4-thiazinan-4-carboxamide] | 105 nM | > 10000 nM
17 | N=S1(=O)CCN(C(=O)N(Cc2ccc(-c3nnc(C(F)F)o3)cc2F)c2cccnc2)CC1 [Compound 66, N-[[4-[5-(difluoromethyl)-1,3,4-oxadiazol-2-yl]-2-fluoro-phenyl]methyl]-1-imino-1-oxo-N-(3-pyridyl)-1,4-thiazinan-4-carboxamide] | 90.2 nM | > 10000 nM
18 | CC(=O)N1CCC(c2ccc(N(Cc3ccc(-c4nnc(C(F)F)o4)cc3F)C(=O)N3CCS(=N)(=O)CC3)cc2)CC1 [Compound 67] | 347 nM | > 10000 nM
19 | N=S1(=O)C[C@@H]2C[C@H]1CN2C(=O)N(Cc1ccc(-c2nnc(C(F)F)o2)cc1F)c1ccccc1 (stereo partly drawn) [Compound 68, (1S,4S)—N-[[4-[5-(difluoromethyl)-1,3,4-oxadiazol-2-yl]-2-fluoro-phenyl]methyl]-2-imino-2-oxo-N-phenyl-2lambda6-thia-5-azabicyclo[2.2.1]heptan-5-carboxamide] | 39 nM | > 10000 nM
20 | N=S1(=O)CCN(S(=O)(=O)N(Cc2ccc(-c3nnc(C(F)F)o3)cc2F)c2cc(F)ccc2F)CC1 [Compound 69, N-[[4-[5-(difluoromethyl)-1,3,4-oxadiazol-2-yl]-2-fluoro-phenyl]methyl]-N-(2,5-difluorophenyl)-1-imino-1-oxo-1,4-thiazinan-4-sulfonamide] | 124 nM | > 10000 nM
21 | N=S1(=O)CCN(S(=O)(=O)N(Cc2ccc(-c3nnc(C(F)F)o3)cc2F)c2cccc(Cl)c2)CC1 [Compound 70, N-(3-chlorophenyl)-N-[[4-[5-(difluoromethyl)-1,3,4-oxadiazol-2-yl]-2-fluoro-phenyl]methyl]-1-imino-1-oxo-1,4-thiazinan-4-sulfonamide] | 52.2 nM | > 10000 nM
22 | N=S1(=O)CCN(S(=O)(=O)N(Cc2ccc(-c3nnc(C(F)F)o3)cn2)c2cccc(Cl)c2)CC1 [Compound 71, N-(3-chlorophenyl)-N-[[5-[5-(difluoromethyl)-1,3,4-oxadiazol-2-yl]-2-pyridyl]methyl]-1-imino-1-oxo-1,4-thiazinan-4-sulfonamide] | 31.7 nM | > 10000 nM
23 | COc1cccc(N(Cc2ccc(-c3nnc(C(F)F)o3)cn2)S(=O)(=O)N2CCS(=N)(=O)CC2)c1 [Compound 72, N-[[5-[5-(difluoromethyl)-1,3,4-oxadiazol-2-yl]-2-pyridyl]methyl]-1-imino-N-(3-methoxyphenyl)-1-oxo-1,4-thiazinan-4-sulfonamide] | 78.8 nM | > 10000 nM
